Laboratory results: patent US20240150691A1, “BILE DUCT CHIP AND USE THEREOF” (Kyoto University, priority 2021, published 2024)
Values belong to the molecule of their own block, whether it stands above or below them.

How the values were obtained:
[1] = Drug absorption in microfluidic device without PHH (LC-MS/MS); assay type: physicochemical; conditions: for Drug absorption rate: Microfluidic device/Polystyrene plate, without PHH
Protocol: (§1) A culture medium containing MDZ, DIC, PHE, BUF, or MPHT was added to a microfluidic device or a polystyrene plate. Subsequently, 1, 2, and 4 hours after the addition of the drugs, the amounts of these drugs were quantified with LC-MS/MS.
as §1, with “APAP (a CYP1A2 metabolite), 1OH-MDZ (a CYP3A4 metabolite), 4OH-DIC (a CYP2C9 metabolite), 4OH-MPHT (a CYP2C19 metabolite),” for “MDZ, DIC, PHE, BUF,”, “1OH-BUF (a CYP2D6 metabolite)” for “MPHT”
Subsequently, it was examined whether the absorption of the drugs and metabolites could be predicted by the relative physicochemical characteristics between the microfluidic device and the polystyrene plate. The drug absorption rate between the microfluidic device and the polystyrene plate was calculated. Subsequently, a correlation coefficient R^2 value between the drug absorption rate and the physicochemical characteristics (DiffCoef, M Log P, S+Log P, S+log D, MWt, and tPSA) of the drugs was calculated.

[2] = Acetaminophen-induced cytotoxicity, WST-8 assay; assay type: cell-based, human; conditions: human, PHH cultured on the polystyrene plate
Protocol: (§2) PHH was exposed to 10 mM APAP (FUJIFILM Wako Pure Chemical Corporation) for 4 days. Cell viability was measured according to a WST-8 assay. The WST-8 assay was carried out using a Cell Counting Kit-8 (Dojindo Molecular Technologies. Inc.) according to the instruction manual. The cell viability was calculated as a percentage with respect to cells not subjected to a drug treatment.
(§3) The drug responsiveness of the PHH cultured in the microfluidic device and the polystyrene plate was evaluated. PHH was treated with acetaminophen (APAP), which is known to cause drug-induced liver damage at a high concentration, in order to investigate whether or not drug-induced liver damage can be evaluated in PHH cultured in a microfluidic device. PHH was seeded in a microfluidic device or a polystyrene plate and cultured for 24 hours. Subsequently, the PHH was exposed to 10 mM acetaminophen for 4 days. Subsequently, cell viability was measured according to a WST-8 assay.
(§4) Subsequently, the hepatotoxicity of PHH due to acetaminophen was examined. The PHH cultured on the polystyrene plate was exposed to acetaminophen at various concentrations for 4 days. Subsequently, cell viability was measured according to a WST-8 assay. […] The data is indicated as average value±standard deviation (n=3).

PHH = test: Acetaminophen-induced cytotoxicity, WST-8 assay; assay type: cell-based, human; conditions: 10 mM acetaminophen, 4 days
Protocol: as §2, §3, §4

CYP1A2 = test: Measurement of CYP activity using CYP substrates in PHH (PHE to APAP); assay type: in vitro ADME, human; conditions: 50 μM PHE
Protocol: The supernatant was recovered 1, 2, and 4 hours after the treatment with the substrate.

CYP2D6 = target: T1, CYP2D6 (Homo sapiens, UniProt P10635); test: Measurement of CYP activity using CYP substrates in PHH (BUF to 1OH-BUF); assay type: in vitro ADME; conditions: 10 μM BUF
T1 construct: endogenous in cells; host or cells: primary human hepatocytes (PHH)
Protocol: (§5) The LC-MS/MS analysis was carried out to measure the activity of CYP. Prior to a CYP substrate treatment, PHH was cultured in DMEM containing 10 mM HEPES for 30 minutes. Subsequently, the PHH was cultured in a culture medium containing 5 μM MDZ (the metabolite thereof is 1OH-MDZ), 50 μM MPHT (the metabolite thereof is 4OH-MPHT), 5 μM DIC (the metabolite thereof is 4OH-DIC), 10 μM BUF (the metabolite thereof is 1OH-BUF), or 50 μM PHE (the metabolite thereof is APAP). The supernatant was recovered 1, 2, and 4 hours after the treatment with the substrate. At the time of recovering the supernatant, an equal amount of a culture medium containing the substrate was added.
(§6) The recovered supernatant was mixed with acetonitrile (FUJIFILM Wako Pure Chemical Corporation) containing an equal volume of 5 μM propranolol (internal standard). The specimen was filtered through a Cosmonice Filter W (Nacalai Tesque, Inc.) having a pore size of 0.45 μm, the supernatant was subsequently analyzed by LC-MS/MS, and the concentration of the metabolite was measured based on the standard curve. […]
(§7) Subsequently, the drug metabolic activities of the PHH cultured in the PDMS device and the PS plate were compared. […] Subsequently, after 1, 2, and 4 hours, the amounts of the metabolites (OH-MDZ, 4OH-DIC, APAP, 1OH-BUF, and 4OH-MPHT) generated in the culture medium were measured by LC-MS/MS.

CYP2C9 = target: T2, CYP2C9 (Homo sapiens, UniProt P11712); test: Measurement of CYP activity using CYP substrates in PHH (DIC to 4OH-DIC); assay type: in vitro ADME; conditions: 5 μM DIC
T2 construct: endogenous in cells; host or cells: primary human hepatocytes (PHH)
Protocol: as §5, §6, §7

CYP2C19 = target: T3, CYP2C19 (Homo sapiens, UniProt P33261); test: Measurement of CYP activity using CYP substrates in PHH (MPHT to 4OH-MPHT); assay type: in vitro ADME; conditions: 50 μM MPHT
T3 construct: endogenous in cells; host or cells: primary human hepatocytes (PHH)
Protocol: as §5, §6, §7

T3 sequence (P33261 whole entry): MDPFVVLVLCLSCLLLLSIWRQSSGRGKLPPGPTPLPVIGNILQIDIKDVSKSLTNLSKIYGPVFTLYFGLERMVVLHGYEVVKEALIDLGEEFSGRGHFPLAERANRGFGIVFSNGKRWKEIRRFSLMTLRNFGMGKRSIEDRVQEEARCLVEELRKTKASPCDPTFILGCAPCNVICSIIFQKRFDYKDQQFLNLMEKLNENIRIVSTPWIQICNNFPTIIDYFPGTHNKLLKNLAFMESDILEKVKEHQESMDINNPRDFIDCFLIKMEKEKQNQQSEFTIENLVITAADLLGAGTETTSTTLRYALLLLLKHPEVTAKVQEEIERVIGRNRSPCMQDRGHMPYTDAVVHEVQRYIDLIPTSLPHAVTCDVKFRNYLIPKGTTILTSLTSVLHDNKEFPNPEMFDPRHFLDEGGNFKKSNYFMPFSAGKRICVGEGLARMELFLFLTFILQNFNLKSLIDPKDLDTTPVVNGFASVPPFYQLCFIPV
T2 sequence (P11712 whole entry): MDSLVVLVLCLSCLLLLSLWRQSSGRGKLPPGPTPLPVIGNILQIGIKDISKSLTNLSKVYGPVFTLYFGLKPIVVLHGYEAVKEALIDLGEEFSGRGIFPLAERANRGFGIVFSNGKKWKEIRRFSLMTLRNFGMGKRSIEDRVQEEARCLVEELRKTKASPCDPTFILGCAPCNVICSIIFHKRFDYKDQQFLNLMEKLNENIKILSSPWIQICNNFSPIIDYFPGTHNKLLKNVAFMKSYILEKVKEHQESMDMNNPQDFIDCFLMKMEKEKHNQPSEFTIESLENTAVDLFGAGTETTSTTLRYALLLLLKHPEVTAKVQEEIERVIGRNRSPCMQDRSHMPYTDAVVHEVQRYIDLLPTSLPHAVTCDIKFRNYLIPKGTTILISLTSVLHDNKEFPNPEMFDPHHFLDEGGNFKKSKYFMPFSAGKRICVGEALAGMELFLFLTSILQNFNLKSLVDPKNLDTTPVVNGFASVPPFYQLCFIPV
T1 sequence (P10635 whole entry): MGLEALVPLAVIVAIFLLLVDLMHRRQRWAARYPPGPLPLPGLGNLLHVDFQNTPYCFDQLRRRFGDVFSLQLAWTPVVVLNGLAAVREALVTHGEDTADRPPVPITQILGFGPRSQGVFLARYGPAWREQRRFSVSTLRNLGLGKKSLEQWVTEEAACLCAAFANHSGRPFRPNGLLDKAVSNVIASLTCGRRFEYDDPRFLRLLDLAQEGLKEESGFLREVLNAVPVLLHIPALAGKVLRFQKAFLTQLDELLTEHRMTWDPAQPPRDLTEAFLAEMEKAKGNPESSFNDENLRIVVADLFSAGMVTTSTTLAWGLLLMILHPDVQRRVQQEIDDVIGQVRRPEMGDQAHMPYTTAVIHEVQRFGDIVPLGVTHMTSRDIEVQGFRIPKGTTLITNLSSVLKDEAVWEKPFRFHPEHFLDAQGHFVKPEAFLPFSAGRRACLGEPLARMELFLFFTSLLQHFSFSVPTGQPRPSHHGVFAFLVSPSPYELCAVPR

- Drug absorption rate [1]: 0.8987
- formation rate of metabolite, microfluidic device versus polystyrene plate (CYP1A2): similar
Structure (SMILES): CC(=O)Nc1ccc(O)cc1 [Acetaminophen, acetaminophen]
- CC50 at 4 days [2]: 9.4 mM
- cell viability, microfluidic device versus polystyrene plate (PHH): significantly lower

- Drug absorption rate [1]: 0.9648
- absorption in the microfluidic device ([1]; PDMS device without PHH): not absorbed
- formation rate of metabolite, microfluidic device versus polystyrene plate (CYP2D6): similar
Structure (SMILES): CC(O)c1cccc2cc(C(O)CNC(C)(C)C)oc12 (centres unmarked) [1-hydroxybufuralol]

Structure (SMILES): O=C(O)Cc1ccccc1Nc1c(Cl)cc(O)cc1Cl [4-hydroxy diclofenac, 4-hydroxydiclofenac]
- Drug absorption rate [1]: 0.725
- formation rate of metabolite, microfluidic device versus PS plate (CYP2C9): significantly lower

- Drug absorption rate [1]: 0.8633
- formation rate of metabolite, microfluidic device versus PS plate (CYP2C19): significantly lower
Structure (SMILES): CCC1(c2ccc(O)cc2)NC(=O)N(C)C1=O (centres unmarked) [4-hydroxymephenytoin]
